Our source for the IC50 values is patent US6458813B1, “Substituted pyridine compounds and methods of use” (Amgen Inc., priority 1997, dated 2002).

pIC50: −log10 of the molar value.

The first assay has as its system production of tumor necrosis factor (TNF) by monocytes activated with bacterial lipopolysaccharide (LPS). Put plainly: Lipopolysaccharide-activated monocyte TNF production assay. The class given is cell-based. The settings on record: Homo sapiens, adherent monocytes from PBMCs, 60 min with compound, then LPS 4 hrs, TNF in supernatants by ELISA, read-out: IC50 (concentration of test compounds causing a 50% reduction in TNF production). As to the method: Lipopolysaccharide-activated monocyte TNF production assay
Test compounds were evaluated in vitro for the ability to inhibit the production of tumor necrosis factor (TNF) by monocytes activated with bacterial lipopolysaccharide (LPS). Fresh residual source leukocytes (a byproduct of plateletpheresis) were obtained from a local blood bank, and peripheral blood mononuclear cells (PBMCs) were isolated by density gradient centrifugation on Ficol-Paque Plus (Pharmacia). PBMCs were suspended at 2×10^6/ml in DMEM supplemented to contain 2% FCS, 10 mM, 0.3 mg/ml […], 100 U/ml penicillin G and […] streptomycin sulfate (complete media). Cells were plated into Falcon flat bottom, 96 well culture plates (200 μl/well) and cultured overnight at 37° C. and 6% CO2. Non-adherent cells were removed by washing with 200 μl/well of fresh medium. Wells containing adherent cells (˜70% monocytes) were replenished with 100 μl of fresh medium.
Preparation of test compound stock solutions
Test compounds were dissolved in DMSO. Compound stock solutions were prepared to an initial concentration of […]. Stocks were diluted initially to 20-200 μM in complete media. Nine two-fold serial dilutions of each compound were then prepared in complete medium.
Treatment of cells with test compounds and activation of TNF production with lipopolysaccharide
One hundred microliters of each test compound dilution were added to microtiter wells containing adherent monocytes and 100 μl complete medium. Monocytes were cultured with test compounds for 60 min at which time 25 μl of complete medium containing 30 ng/ml lipopolysaccharide from E. coli K532 were added to each well. Cells were cultured an additional 4 hrs. Culture supernatants were then removed and TNF presence in the supernatants was quantified using an ELISA.
Flat bottom, 96 well Corning High Binding ELISA plates were coated overnight (4° C.) with 150 μL/well of 3 μg/ml murine anti-human TNF-α MAb (R&D Systems #MAB210). Wells were then blocked for 1 hr at room temperature with 200 μL/well of CaCl2-free ELISA buffer supplemented to contain 20 mg/ml BSA (standard ELISA buffer: […], 150 mM NaCl, 2 mM CaCl2, 0.15 mM thimerosal, pH 7.4). Plates were washed and replenished with 100 μl of test supernatants (diluted 1:3) or standards. Standards consisted of eleven 1.5-fold serial dilutions from a stock of 1 ng/ml recombinant human TNF (R&D Systems). Plates were incubated at room temperature for 1 hr on orbital shaker (300 rpm), washed and replenished with 100 μl/well of 0.5 μg/ml goat anti-human TNF-α (R&D systems #AB-210-NA) biotinylated at a 4:1 ratio. Plates were incubated for 40 min, washed and replenished with 100 μl/well of alkaline phosphatase-conjugated streptavidin (Jackson ImmunoResearch #016-050-084) at 0.02 μg/ml. Plates were incubated 30 min, washed and replenished with 200 μl/well of 1 mg/ml of p-nitrophenyl phosphate. After 30 min, plates were read at 405 nm on a Vmax plate reader.
Standard curve data were fit to a second order polynomial and unknown TNF-α concentrations determined from their OD by solving this equation for concentration. TNF concentrations were then plotted vs. test compound concentration using a second order polynomial. This equation was then used to calculate the concentration of test compounds causing a 50% reduction in TNF production.
Background: ELISA stands for enzyme-linked immunosorbent assay.
Turning to `O=C(Nc1ccc(Oc2cccc3ccccc23)nc1)c1c(Cl)cccc1Cl` [2-(1-naphthyloxy)-5-(2,6-dichlorophenylcarbonylamino) pyridine], the pIC50 was over 4.82.
Same read-out and setting: under `Cc1ccc(Oc2ccc(NC(=O)c3c(C)cccc3C)cn2)c(C)c1` [2-(2,4-dimethylphenoxy)-5-(2,6-dimethylphenylcarbonylamino)pyridine] stands over 4.82.
On to `Cc1ccc(Oc2ccc(NC(=O)c3ccccc3C)cn2)c(C)c1` [2-(2,4-dimethylphenoxy)-5-(2-methylphenylcarbonylamino) pyridine], for which the pIC50 was over 4.82.
Same read-out and setting: in the case of `Cc1ncccc1Oc1ccc(NC(=O)c2c(Cl)cccc2Cl)cn1` [2-(2-methyl-3-pyridyloxy)-5-(2,6-dichlorophenylcarbonylamino)pyridine] it was over 4.82; in that of `Cc1cc(Cl)ccc1Oc1ccc(NC(=O)c2c(Cl)cccc2Cl)cn1` [2-(2-methyl-4-chlorophenoxy)-5-(2,6-dichlorophenylcarbonylamino)pyridine], over 4.82.
Still for that read-out and setting: under `Cc1cc(Cl)ccc1Oc1ccc(NC(=O)c2c(C)cccc2C)cn1` [2-(2-methyl-4-chlorophenoxy)-5-(2,6-dimethylphenylcarbonylamino)pyridine] stands over 4.82; under `Cc1cc(Cl)ccc1Oc1ccc(NC(=O)c2ccccc2Cl)cn1` [2-(2-methyl-4-chlorophenoxy)-5-(2-chlorophenylcarbonylamino)pyridine], over 4.82.
On the same count and under the same terms, in the case of `Cc1cc(Cl)ccc1Oc1ccc(NC(=O)c2c(C)noc2C)cn1` [2-(2-methyl-4-chlorophenoxy)-5-((3,5-dimethyl-4-isoxazolyl)carbonylamino)pyridine] it was over 4.82.
As for `Cc1ccccc1NC(=O)c1ccc(Nc2ccc(Cl)cc2C)nc1` [2-(2-methyl-4-chlorophenylamino)-5-(2-methylphenylaminocarbonyl)pyridine], the pIC50 was over 4.82.
With `Cc1cc(Cl)ccc1Nc1ccc(NC(=O)c2ccccc2C)cn1` [2-(2-methyl-4-chlorophenylamino)-5-(2-methylphenylcarbonylamino)pyridine], the pIC50 was over 4.82.
The same measure, in the same setting: in the case of `Cc1cc(F)ccc1Oc1ccc(NC(=O)c2c(Cl)cccc2Cl)cn1` [2-(2-methyl-4-fluorophenoxy)-5-(2,6-dichlorophenylcarbonylamino)pyridine] it was over 4.82.
The same measure, in the same setting: under `Cc1cc(F)ccc1Oc1ccc(NC(=O)c2c(C)cccc2C)cn1` [2-(2-methyl-4-fluorophenoxy)-5-(2,6-dimethylphenylcarbonylamino)pyridine] stands over 4.82.
Same read-out and setting: under `Cc1cc(F)ccc1Oc1ccc(NC(=O)c2ccccc2F)cn1` [2-(2-methyl-4-fluorophenoxy)-5-(2-fluorophenylcarbonylamino)pyridine] stands over 4.82; under `Cc1cc(F)ccc1Oc1ccc(NC(=O)c2ccccc2C)cn1` [2-(2-methyl-4-fluorophenoxy)-5-(2-methylphenylcarbonylamino)pyridine], over 4.82; under `CC1CCCCC1Nc1ccc(NC(=O)c2c(Cl)cccc2Cl)cn1` (centres unmarked) [2-(2-methylcyclohexylamino)-5-(2,6-dichlorophenylcarbonylamino)pyridine], over 4.82.
In the case of `Cc1ccccc1C(=O)Nc1ccc(NC2CCCCC2C)nc1` (centres unmarked) [2-(2-methylcyclohexylamino)-5-(2-methylphenylcarbonylamino)pyridine], the pIC50 is over 4.82.
The same measure, in the same setting: under `Cc1ccccc1Nc1ccc(NC(=O)c2c(C)cccc2C)cn1` [2-(2-methylphenylamino)-5-(2,6-dimethylphenylcarbonylamino)pyridine] stands over 4.82; under `Cc1ccccc1Nc1ccc(NC(=O)c2ccccc2C)cn1` [2-(2-methylphenylamino)-5-(2-methylphenylcarbonylamino)pyridine], over 4.82.
The same measure, in the same setting: in the case of `Cc1cccc(C)c1C(=O)Nc1ccc(Oc2ccc(Cl)cc2)nc1` [2-(4-chlorophenoxy)-5-(2,6-dimethylphenylcarbonylamino) pyridine] it was over 4.82; in that of `O=C(Nc1ccc(NC2CCCCC2)nc1)c1c(Cl)cccc1Cl` [2-cyclohexylamino-5-(2,6-dichlorophenylcarbonylamino) pyridine], over 4.82; in that of `Cc1cccc(C)c1C(=O)Nc1ccc(NC2CCCCC2)nc1` [2-cyclohexylamino-5-(2,6-dimethylphenylcarbonylamino) pyridine], over 4.82.
Same read-out and setting: in the case of `O=C(Nc1ccc(OC2CCCCC2)nc1)c1c(Cl)cccc1Cl` [2-cyclohexyloxy-5-(2,6-dichlorophenylcarbonylamino) pyridine] it was over 4.82.
For the molecule `Cc1cccc(C)c1C(=O)Nc1ccc(OC2CCCCC2)nc1` [2-cyclohexyloxy-5-(2,6-dimethylphenylcarbonylamino) pyridine], the pIC50 was over 4.82.
Still for that read-out and setting: under `O=C(Nc1ccc(OC2CCCCC2)nc1)c1ccccc1Cl` [2-cyclohexyloxy-5-(2-chlorophenylcarbonylamino)pyridine] stands over 4.82.
Still for that read-out and setting: in the case of `Cc1ccccc1C(=O)Nc1ccc(OC2CCCCC2)nc1` [2-cyclohexyloxy-5-(2-methylphenylcarbonylamino)pyridine] it was over 4.82.

The next assay has as its system Cyclooxygenase enzyme (COX-1 and COX-2). As to the kind of experiment: Cyclooxygenase Enzyme Activity Assay (isoform not stated for the result). It is filed as cell-based, human. The settings on record: COX-1 (THP-1) / COX-2 (HOSC) cell assays, PGE2 ELISA. As to the method: Cyclooxygenase Enzyme Activity Assay
The human monocytic leukemia cell line, THP-1, differentiated by exposure to phorbol esters expresses only COX-1; the human osteosarcoma cell line 143B expresses predominantly COX-2. THP-1 cells are routinely cultured in RPMI complete media supplemented with 10% FBS and human osteosarcoma cells (HOSC) are cultured in minimal essential media supplemented with 10% fetal bovine serum (MEM-10%FBS); all cell incubations are at 37° C. in a humidified environment containing 5% CO2.
In preparation for the COX-1 assay, THP-1 cells are grown to confluency, split 1:3 into RPMI containing 2% FBS and […] phorbol 12-myristate 13-acetate (TPA), and incubated for 48 hours on a shaker to prevent attachment. […] Arachidonic acid is added to a final concentration of […], the cells incubated for 20 minutes at 37° C., and enzyme activity determined as described below. […]
After incubation with arachidonic acid, the reactions are stopped by the addition of 1 N HCl, followed by neutralization with 1 N NaOH and centrifugation to pellet cell debris. Cyclooxygenase enzyme activity in both HOSC and THP-1 cell supernatants is determined by measuring the concentration of PGE2 using a commercially available ELISA (Neogen #404110). […]
Consider `Cc1ccc(Nc2ccc(NC(=O)c3c(Cl)cccc3Cl)cn2)c(C)c1` [2-(2,4-dimethylphenylamino)-5-(2,6-dichlorophenylcarbonylamino)pyridine], for which the pIC50 is at least 5.00.
